{"source": "paper PMC8757452", "about": "(ACS Omega, 2021)", "key": {"T. cruzi epimastigotes [1]": {"tested_on": "T. cruzi epimastigotes", "assay": "T. cruzi epimastigotes growth inhibition, [3H] thymidine uptake assay", "format": "cell-based, Trypanosoma cruzi", "conditions": "for SI (selectivity index, relation between CC50 and IC50): CC50 splenocytes / IC50 epimastigotes; for IC50: 72 h, read-out: IC50 (μg/mL) ± SD on T. cruzi epimastigotes"}, "T. cruzi epimastigotes [2]": {"tested_on": "T. cruzi epimastigotes", "conditions": "ref [14], cited from earlier work"}, "T. cruzi (K-98 clone)": {"tested_on": "T. cruzi (K-98 clone)", "assay": "In vivo trypanocidal activity, murine model of Chagas disease", "set-up": "species or system BALB/c mice", "conditions": "1 mg/kg/day i.p."}, "HeLa cells": {"tested_on": "HeLa cells", "conditions": "read-out: IC50, cytotoxicity on HeLa cells, ref [28]; cited from earlier work"}}}
{"compound": "C=C1C(=O)O[C@@H]2C[C@@H](C)[C@@H]3C=CC(=O)[C@@]3(C)[C@@H](O)[C@H]12", "note": "[compound 10, helenalin]", "values": [{"measurement": "SI (selectivity index, relation between CC50 and IC50)", "setting": "T. cruzi epimastigotes [1]", "result": 1.1}, {"measurement": "IC50", "setting": "T. cruzi epimastigotes [1]; Trypanosoma cruzi", "result": "0.29 ± 0.05", "unit": "µg/mL"}, {"measurement": "inhibition at 1.5 µg/mL", "setting": "T. cruzi epimastigotes [1]; Trypanosoma cruzi, read-out: inhibition of parasite replication", "result": 66, "unit": "%"}]}
{"compound": "COC1=C(C(C)C)C(=O)C2=C(C[C@@]34CCCC(C)(C)[C@@H]3C[C@]2(O)O4)C1=O", "note": "[K, Komaroviquinone]", "values": [{"measurement": "IC50 of komaroviquinone", "setting": "T. cruzi epimastigotes [2]; T. cruzi epimastigotes", "result": "a Komaroviquinone IC50 = 1.00 μg/mL ref ([14])."}, {"measurement": "log (1/IC50) of komaroviquinone", "setting": "T. cruzi epimastigotes [2]; from IC50 = 1.00 μg/mL, IC50 in molar", "result": 5.43}]}
{"compound": "O=C(Cn1ccnc1[N+](=O)[O-])NCc1ccccc1", "note": "[benznidazole]", "values": [{"measurement": "area under the parasitemia curve (AUC)", "setting": "T. cruzi (K-98 clone); days 11-15 post-infection", "result": 4}, {"measurement": "sterile cure", "setting": "T. cruzi (K-98 clone); five days", "result": "neither Bz was able to cure"}, {"measurement": "IC50", "setting": "T. cruzi epimastigotes [1]; Trypanosoma cruzi", "result": "1 ± 0.62", "unit": "µg/mL"}]}
{"compound": "C=C1C[C@H](O)[C@H](Br)C(C)(C)[C@@]12CCC(C)=C(Cl)C2", "note": "[elatol]", "values": [{"measurement": "IC50", "setting": "HeLa cells", "result": 1.3, "unit": "µM"}]}
{"compound": "C=C1C(=O)O[C@@H]2[C@H]1CC[C@H](C)[C@@]1(O)C=CC(=O)[C@@]21C", "note": "[compound 14, hymenin]", "values": [{"measurement": "SI (selectivity index, relation between CC50 and IC50)", "setting": "T. cruzi epimastigotes [1]", "result": 0.8}, {"measurement": "IC50", "setting": "T. cruzi epimastigotes [1]; Trypanosoma cruzi", "result": "1.5 ± 0.09", "unit": "µg/mL"}]}
